Test results reported in patent US12419307B2, “Mixtures comprising indazole pesticides” (FMC Corporation, priority 2019, dated 2025).
Read-outs that look alike come from different tables or passages of the source.

Columns and labels:
Format in all cases: in vivo
[1] = test system: silverleaf whitefly (Bemisia argentifolii Bellows and Perring); assay: Test A: silverleaf whitefly control on cotton or soybean plants, spray, insect mortality after 13 days; conditions: Bemisia argentifolii, applied alone, read-out: % Mortality (obs)
Protocol: (§1) The pest control protection afforded by the mixtures or compositions is not limited, however, to these species. The analysis of enhanced activity between the mixtures or compositions was determined using Colby's equation. The average % mortality data for the test compounds alone were inserted into the Colby's equation. If the observed (obs) average % mortality was higher than “p”, the expected (exp) % mortality, the mixture or composition had enhanced effects. If the observed average % mortality was equal to or lower than the expected mortality, the mixture or composition either had no enhanced effect. For bioassays where insect feeding damage was evaluated, enhanced activity is identified when the observed plant damage is less than the expected plant damage rating; ratings ranged between 0 (no damage) and 10 (dead plant) and each value was converted to a % plant protection. 100−(Obs Plant Damage*10)
For evaluating control of silverleaf whitefly (Bemisia argentifolii Bellows and Perring) through contact and/or systemic means, each test unit consisted of a small open container with a 12- to 14-day-old cotton plant or 5-7 day old soybean plant inside. This was pre-infested by placing test units into cages containing adult whiteflies so that oviposition on the cotton leaves could occur. The adults were removed from the plants with an air-blast nozzle, and the test units were capped. The test units were then stored 2 to 3 days before spraying.
Test compounds were formulated using a solution containing 10% acetone, 90% water and 300 ppm Activator 90@ Spreader Lo-Foam Formula non-ionic surfactant containing alkylarylpolyoxyethylene, free fatty acids, glycols and 2-propanol (Loveland Industries, Inc.) to provide the desired concentration in ppm. Formulated test solutions were then applied in 1 mL volumes through a SUJ2 atomizer nozzle with ⅛ JJ custom body (Spraying Systems Co.) positioned 1.27 cm (0.5 inches) above the top of each test unit.
The results for all experimental compositions in this test were replicated three times. After spraying of the formulated test composition, each test unit was allowed to dry for 1 hour and the cap removed. The test units were held for 13 days in a growth chamber at 28° C. and 50-70% relative humidity.

[2] = test system: Western Flower Thrips (Frankliniella occidentalis Pergande); assay: Test B: Western Flower Thrips control on bean plants, plant damage rating converted to % plant protection after 7 days; conditions: for pest or weed control at 3.18 ppm / pest or weed control at 9.75 ppm / pest or weed control at 1.5 ppm / pest or weed control at 4.5 ppm: Frankliniella occidentalis, 168 h, read-out: Plant Protection (obs); for Plant Damage (obs): Table 3a; for Plant Damage (obs) / Plant Protection (obs): applied alone
Protocol: as §1
Thus, a plant given a plant damage rating of 3 out of 10 is equivalent to 70% plant protection In all of these tests, compounds of Formula I are Compounds 1 (Cpd 1), 2 (Cpd2), and 3 (Cpd3) and compounds of Formula II are compounds 4 (Cpd4) and 5 (Cpd 5).
For evaluating control of the Western Flower Thrips (Frankliniella occidentalis Pergande) through contact and/or systemic means, each test unit consisted of a small open container with a 5- to 7-day-old bean (var. Soleil) plant inside.
Test solutions were formulated and sprayed with 3 replications as described for Test A. After spraying, the test units were allowed to dry for 1 hour, 22 to 27 adult thrips were added to each unit and then a black, screened cap was placed on top. The test units were held for 7 days at 25° C. and 45-55% relative humidity. To evaluate the level of plant protection provided by each treatment, each test unit was then visually assessed for plant damage inflicted by insect feeding and rated 0-10, where 0=undamaged and 10=plant is dead; the results are listed in Tables 3a-g.

[3] = test system: Potato Leafhopper (Empoasca fabae Harris); assay: Test C: Potato Leafhopper control on bean plants, insect mortality after 6 days; conditions: read-out: % Mortality (obs)
Protocol: as §1
For evaluating control of Potato Leafhopper (Empoasca fabae Harris) through contact and/or systemic means, each test unit consisted of a small open container with a 5- to 6-day-old Longio bean plant (primary leaves emerged) inside. White sand was added to the top of the soil, and one of the primary leaves was excised prior to application. Test compounds were formulated and sprayed with 3 replications as described for Test A. After spraying, the test units were allowed to dry for 1 hour before they were infested with 5 potato leafhoppers (18- to 21-day-old adults). A black, screened cap was placed on the top of each container. The test units were held for 6 days in a growth chamber at 19-21° C. and 50-70% relative humidity.

[4] = test system: corn planthopper (Peregrinus maidis (Ashmead)); assay: Test C: corn planthopper control on corn plants, insect mortality after 6 days; conditions: Peregrinus maidis, read-out: % Mortality (obs)
Protocol: as §1
For evaluating control of corn planthopper (Peregrinus maidis (Ashmead)) through contact and/or systemic means, the test unit consisted of a small open container with a 3-4-day-old corn (maize) plant inside. White sand was added to the top of the soil prior to application of the test compound.
Test compounds were formulated and sprayed at 250 and/or 50 ppm and/or 10 ppm. After spraying of the formulated test compound, the test units were allowed to dry for 1 h before they were post-infested with ˜15-20 nymphs (18-to-21-day-old). […]

[5] = test system: fall armyworm (Spodoptera frugiperda (J. E. Smith)); assay: Test E: fall armyworm control on corn plants, plant damage rating and mortality after 6 days; conditions: Spodoptera frugiperda, 144 h, Table 6e, read-out: Plant Protection (obs)
Protocol: as §1
For evaluating control of fall armyworm (Spodoptera frugiperda (J. E. Smith)) the test unit consisted of a small open container with a 4-5-day-old corn (maize) plant inside. This was pre-infested with 10-15 1-day-old larvae on a piece of insect diet. Test compounds were formulated and sprayed with 3 replications as described for Test A. After spraying of the formulated test compound, the test units were maintained in a growth chamber for 6 days at 25° C. and 70% relative humidity. Plant feeding damage was then visually assessed based on foliage consumed, and larvae were assessed for mortality. Each test unit was then visually assessed for plant damage and rated 0-10, where 0=undamaged and 10=plant is dead; the results are listed in Tables 6d-i.

For `CSCC(C)(C)NC(=O)c1ccc(F)c2nn(-c3cccnc3)cc12` [Cpd 1, N-[1,1-dimethyl-2-(methylthio)ethyl]-7-fluoro-2-(3-pyridinyl)-2H-indazole-4-carboxamide], the mortality at 50 ppm ([1]; 2 h, Table 2h) was 2.4%, the mortality at 250 ppm ([1]; 2 h, Table 2h) was 7.6% and the mortality at 50 ppm ([1]; 48 h, Table 2d) was 0%. For the same compound, the mortality at 250 ppm ([1]; 48 h, Table 2d) was 1.3%, the mortality at 50 ppm ([1]; Table 2a) was 0% and the mortality at 250 ppm ([1]; Table 2a) was 18.8%. It also gave a mortality at 50 ppm ([1]; Table 2b) of 80%, a mortality at 250 ppm ([1]; Table 2b) of 0% and a mortality at 50 ppm ([1]; Table 2c) of 0%. For the same compound, the mortality at 250 ppm ([1]; Table 2c) was 3.1%, the mortality at 50 ppm ([1]; Table 2e) was 0% and the mortality at 250 ppm ([1]; Table 2e) was 2.2%. The mortality at 50 ppm ([1]; Table 2f) was 9.3%, the mortality at 250 ppm ([1]; Table 2f) was 0% and the mortality at 50 ppm ([1]; Table 2g) was 2.6%. It also gave a mortality at 250 ppm ([1]; Table 2g) of 2.1%, a pest or weed control at 3.18 ppm ([2]; Table 3e, 3.18 ppm) of 76.7% and a pest or weed control at 9.75 ppm ([2]; Table 3e, 9.75 ppm) of 66.7%. It also gave a pest or weed control at 3.18 ppm ([2]; Table 3f, 3.18 ppm) of 33.3%, a pest or weed control at 9.75 ppm ([2]; Table 3f, 9.75 ppm) of 80% and a pest or weed control at 3.18 ppm ([2]; Table 3g, 3.18 ppm) of 10%. For the same compound, the pest or weed control at 9.75 ppm ([2]; Table 3g, 9.75 ppm) was 76.7%, the pest or weed control at 3.18 ppm ([2]; Table 3d, 3.18 ppm) was 63.3% and the pest or weed control at 9.75 ppm ([2]; Table 3d, 9.75 ppm) was 90%. The “Plant Damage (obs)” value ([2]; 3.18 ppm) was 33.3%, the “Plant Damage (obs)” value ([2]; 9.75 ppm) was 73.3% and the “Plant Protection (obs)” value ([2]; Table 3b, 3.18 ppm) was 73.3%. The “Plant Protection (obs)” value ([2]; Table 3b, 9.75 ppm) was 76.7%, the “Plant Protection (obs)” value ([2]; Table 3c, 3.18 ppm) was 63.3% and the “Plant Protection (obs)” value ([2]; Table 3c, 9.75 ppm) was 83.3%. It also gave a mortality at 50 ppm ([3]; Table 4a) of 60%, a mortality at 250 ppm ([3]; Table 4a) of 35.7% and a mortality at 50 ppm ([3]; Table 4b) of 20%. For the same compound, the mortality at 250 ppm ([3]; Table 4b) was 6.7%, the mortality at 50 ppm ([3]; Table 4c) was 6.7% and the mortality at 250 ppm ([3]; Table 4c) was 33.3%. The mortality at 50 ppm ([4]; 96 h, Table 4d) was 14.8%, the mortality at 250 ppm ([4]; 96 h, Table 4d) was 45.8% and the mortality at 50 ppm ([4]; Table 4e) was 18.9%. For the same compound, the mortality at 250 ppm ([4]; Table 4e) was 7.6%, the pest or weed control at 50 ppm [5] was 0% and the pest or weed control at 250 ppm [5] was 0%.

Work on `C[S+]([O-])CC(C)(C)NC(=O)c1ccc(F)c2nn(-c3cccnc3)cc12` (stereo not drawn) [Cpd 2, N-[1,1-dimethyl-2-(methylsulfinyl)ethyl]-7-fluoro-2-(3-pyridinyl)-2H-indazole-4-carboxamide] yielded a mortality at 50 ppm ([1]; 2 h, Table 2h) of 0%, a mortality at 250 ppm ([1]; 2 h, Table 2h) of 2.9% and a mortality at 50 ppm ([1]; 48 h, Table 2d) of 7.5%. It also gave a mortality at 250 ppm ([1]; 48 h, Table 2d) of 28%, a mortality at 50 ppm ([1]; Table 2a) of 10.9% and a mortality at 250 ppm ([1]; Table 2a) of 74.5%. It also gave a mortality at 50 ppm ([1]; Table 2b) of 80%, a mortality at 250 ppm ([1]; Table 2b) of 53.3% and a mortality at 50 ppm ([1]; Table 2c) of 11.8%. It also gave a mortality at 250 ppm ([1]; Table 2c) of 75.4%, a mortality at 50 ppm ([1]; Table 2e) of 17.8% and a mortality at 250 ppm ([1]; Table 2e) of 90.2%. The mortality at 50 ppm ([1]; Table 2f) was 15.7%, the mortality at 250 ppm ([1]; Table 2f) was 90.6% and the mortality at 50 ppm ([1]; Table 2g) was 31.1%. It also gave a mortality at 250 ppm ([1]; Table 2g) of 91.7%, a pest or weed control at 1.5 ppm ([2]; Table 3e, 1.5 ppm) of 66.7% and a pest or weed control at 4.5 ppm ([2]; Table 3e, 4.5 ppm) of 43.3%. The pest or weed control at 1.5 ppm ([2]; Table 3f, 1.5 ppm) was 43.3%, the pest or weed control at 4.5 ppm ([2]; Table 3f, 4.5 ppm) was 73.3% and the pest or weed control at 1.5 ppm ([2]; Table 3g, 1.5 ppm) was 16.7%. The pest or weed control at 4.5 ppm ([2]; Table 3g, 4.5 ppm) was 33.3%, the pest or weed control at 1.5 ppm ([2]; Table 3d, 1.5 ppm) was 36.7% and the pest or weed control at 4.5 ppm ([2]; Table 3d, 4.5 ppm) was 76.7%. For the same compound, the “Plant Damage (obs)” value ([2]; 1.5 ppm) was 13.3%, the “Plant Damage (obs)” value ([2]; 4.5 ppm) was 56.7% and the “Plant Protection (obs)” value ([2]; Table 3b, 1.5 ppm) was 16.7%. For the same compound, the “Plant Protection (obs)” value ([2]; Table 3b, 4.5 ppm) was 83.3%, the “Plant Protection (obs)” value ([2]; Table 3c, 1.5 ppm) was 43.3% and the “Plant Protection (obs)” value ([2]; Table 3c, 4.5 ppm) was 80.0%. It also gave a mortality at 50 ppm ([3]; Table 4a) of 46.7%, a mortality at 250 ppm ([3]; Table 4a) of 86.7% and a mortality at 50 ppm ([3]; Table 4b) of 6.7%. It also gave a mortality at 250 ppm ([3]; Table 4b) of 85.7%, a mortality at 50 ppm ([3]; Table 4c) of 20% and a mortality at 250 ppm ([3]; Table 4c) of 73.3%. It also gave a mortality at 50 ppm ([4]; 96 h, Table 4d) of 0%, a mortality at 250 ppm ([4]; 96 h, Table 4d) of 54.1% and a mortality at 50 ppm ([4]; Table 4e) of 7.3%. For the same compound, the mortality at 250 ppm ([4]; Table 4e) was 22.4%, the pest or weed control at 50 ppm [5] was 0% and the pest or weed control at 250 ppm [5] was 0%.
